# Experimental data taken from the NIST ThermoML archive (doi:10.1021/je8004479).
# ± gives the expanded uncertainty stated by the source.
# Experiments:
# [1] = refractive index (Na D-line) (dimensionless); xn = mol fraction of the nth substance listed; conditions: 294 K, 101 kPa, Liquid, Standard Abbe refractometry
# [2] = xn = mol fraction of the nth substance listed; conditions: 294 K; for mass density / viscosity: 101 kPa, Liquid; for mass density: Vibrating tube method
compound,measurement,setting,value
OCC(O)CO [glycerol] + CCO,refractive index,[1]; x2 = 0,1.474 ± 0.0035
same,refractive index,[1]; x2 = 0.084,1.468 ± 0.0035
same,refractive index,[1]; x2 = 0.1222,1.466 ± 0.0035
same,refractive index,[1]; x2 = 0.1761,1.4619 ± 0.0035
same,refractive index,[1]; x2 = 0.2037,1.4592 ± 0.0034
same,refractive index,[1]; x2 = 0.2385,1.4562 ± 0.0034
same,refractive index,[1]; x2 = 0.2789,1.4528 ± 0.0034
same,refractive index,[1]; x2 = 0.351,1.447 ± 0.0034
same,refractive index,[1]; x2 = 0.4138,1.4392 ± 0.0034
same,refractive index,[1]; x2 = 0.4841,1.4326 ± 0.0034
same,refractive index,[1]; x2 = 0.5497,1.4253 ± 0.0034
same,refractive index,[1]; x2 = 0.6046,1.4179 ± 0.0034
same,refractive index,[1]; x2 = 0.6526,1.4131 ± 0.0033
same,refractive index,[1]; x2 = 0.7451,1.4016 ± 0.0033
same,refractive index,[1]; x2 = 0.7984,1.3934 ± 0.0033
same,refractive index,[1]; x2 = 0.8336,1.3885 ± 0.0033
same,refractive index,[1]; x2 = 0.8777,1.3815 ± 0.0033
same,refractive index,[1]; x2 = 0.9353,1.3727 ± 0.0032
same,refractive index,[1]; x2 = 0.9596,1.3681 ± 0.0032
same,surface tension liquid-gas,[2]; x2 = 0,63.1 ± 3.2 mN/m
same,surface tension liquid-gas,[2]; x2 = 0.084,52 ± 2.7 mN/m
same,surface tension liquid-gas,[2]; x2 = 0.1222,48.8 ± 2.6 mN/m
same,surface tension liquid-gas,[2]; x2 = 0.1761,43 ± 2.3 mN/m
same,surface tension liquid-gas,[2]; x2 = 0.2037,41.7 ± 2.2 mN/m
same,surface tension liquid-gas,[2]; x2 = 0.2385,39.4 ± 2.1 mN/m
same,surface tension liquid-gas,[2]; x2 = 0.2789,35.8 ± 2 mN/m
same,surface tension liquid-gas,[2]; x2 = 0.351,33.2 ± 1.9 mN/m
same,surface tension liquid-gas,[2]; x2 = 0.4138,29.7 ± 1.7 mN/m
same,surface tension liquid-gas,[2]; x2 = 0.4841,28.5 ± 1.6 mN/m
same,surface tension liquid-gas,[2]; x2 = 0.5497,27.1 ± 1.6 mN/m
same,surface tension liquid-gas,[2]; x2 = 0.6046,25.1 ± 1.5 mN/m
same,surface tension liquid-gas,[2]; x2 = 0.6526,24.3 ± 1.4 mN/m
same,surface tension liquid-gas,[2]; x2 = 0.7451,23.5 ± 1.4 mN/m
same,surface tension liquid-gas,[2]; x2 = 0.7984,23.5 ± 1.4 mN/m
same,surface tension liquid-gas,[2]; x2 = 0.8336,23 ± 1.4 mN/m
same,surface tension liquid-gas,[2]; x2 = 0.8777,22.5 ± 1.4 mN/m
same,surface tension liquid-gas,[2]; x2 = 0.9353,22.4 ± 1.4 mN/m
same,surface tension liquid-gas,[2]; x2 = 0.9596,22.3 ± 1.3 mN/m
same,mass density,[2]; x2 = 0,1261.51 ± 0.34 kg/m3
same,mass density,[2]; x2 = 0.084,1233.48 ± 0.75 kg/m3
same,mass density,[2]; x2 = 0.1222,1220.3 ± 0.77 kg/m3
same,mass density,[2]; x2 = 0.1761,1201.19 ± 0.78 kg/m3
same,mass density,[2]; x2 = 0.2037,1191.35 ± 0.79 kg/m3
same,mass density,[2]; x2 = 0.2385,1178.37 ± 0.81 kg/m3
same,mass density,[2]; x2 = 0.2789,1162.98 ± 0.84 kg/m3
same,mass density,[2]; x2 = 0.351,1134.3 ± 0.86 kg/m3
same,mass density,[2]; x2 = 0.4138,1108.32 ± 0.9 kg/m3
same,mass density,[2]; x2 = 0.4841,1077.53 ± 0.94 kg/m3
same,mass density,[2]; x2 = 0.5497,1047.03 ± 0.98 kg/m3
same,mass density,[2]; x2 = 0.6046,1020.27 ± 1 kg/m3
same,mass density,[2]; x2 = 0.6526,995.96 ± 1.1 kg/m3
same,mass density,[2]; x2 = 0.7451,946.41 ± 1.1 kg/m3
same,mass density,[2]; x2 = 0.7984,916.05 ± 1.2 kg/m3
same,mass density,[2]; x2 = 0.8336,895.63 ± 1.2 kg/m3
same,mass density,[2]; x2 = 0.8777,868.79 ± 1.2 kg/m3
same,mass density,[2]; x2 = 0.9353,832.89 ± 1.3 kg/m3
same,mass density,[2]; x2 = 0.9596,816.85 ± 1.4 kg/m3
same,viscosity,[2]; x2 = 0,1390 ± 350 mPa·s
same,viscosity,[2]; x2 = 0.084,800.5 ± 160 mPa·s
same,viscosity,[2]; x2 = 0.1222,627.9 ± 120 mPa·s
same,viscosity,[2]; x2 = 0.1761,450 ± 73 mPa·s
same,viscosity,[2]; x2 = 0.2037,385.1 ± 58 mPa·s
same,viscosity,[2]; x2 = 0.2385,270 ± 34 mPa·s
same,viscosity,[2]; x2 = 0.2789,220.5 ± 24 mPa·s
same,viscosity,[2]; x2 = 0.351,141.4 ± 11 mPa·s
same,viscosity,[2]; x2 = 0.4138,80.71 ± 4.3 mPa·s
same,viscosity,[2]; x2 = 0.4841,54.01 ± 2.7 mPa·s
same,viscosity,[2]; x2 = 0.5497,31.52 ± 2.2 mPa·s
same,viscosity,[2]; x2 = 0.6046,20.31 ± 2.1 mPa·s
same,viscosity,[2]; x2 = 0.6526,16.7 ± 2.1 mPa·s
same,viscosity,[2]; x2 = 0.7451,9.096 ± 2 mPa·s
same,viscosity,[2]; x2 = 0.7984,5.217 ± 2 mPa·s
same,viscosity,[2]; x2 = 0.8336,4.1 ± 2 mPa·s
same,viscosity,[2]; x2 = 0.8777,3.037 mPa·s
same,viscosity,[2]; x2 = 0.9353,1.898 mPa·s
same,viscosity,[2]; x2 = 0.9596,1.49 mPa·s
CCO [ethanol] + OCC(O)CO,refractive index,[1]; x1 = 1,1.3618 ± 0.0032
same,surface tension liquid-gas,[2]; x1 = 1,22.2 ± 1.3 mN/m
same,mass density,[2]; x1 = 1,789.91 ± 0.22 kg/m3
same,viscosity,[2]; x1 = 1,1.214 mPa·s
